In article PMC12521730, “Quantitative dual-isotope preclinical SPECT/CT imaging and biodistribution of the mercury-197m/g theranostic pair with [^197m/gHg]HgCl2 and a [^197m/gHg]Hg-tetrathiol complex as a platform for radiopharmaceutical development” (EJNMMI Radiopharmacy and Chemistry, 2025):

Assay: Ex vivo biodistribution (gamma counter)
Assay type: in vivo, healthy male C57BL/6 mice
Conditions: Hg-197g, 2 h post administration
Protocol: For animal injection, the tracer was prepared at high molar activity. Radiolabeling of H4Tetrathiol (10^–2 M in DMSO; 40 μL for imaging, 20 μL for bioD) (or DMSO, for [^197m/gHg]HgCl2 mice) with [^197m/gHg]HgCl2 (imaging: 26.7 MBq total m + g, 62 μL; bioD: 13.04 MBq total m + g, 31 μL) was performed in a mixture of ammonium acetate buffer (1 M; pH 7; 198 μL for imaging or 149 μL for bioD) and 6 M NaOH (72 μL or 38 μL required to achieve a pH of 7.5 after addition of activity, for imaging or BioD labeling, respectively). The reaction was allowed to stand for 1 h at 37 °C and quantitative (> 99%) non-isolated percentage radiochemical yield (%RCY) was confirmed via the iTLC methods mentioned above. Further, 100 µL of the reaction was diluted with 50 µL of PBS Tween-20 (0.01 M sodium phosphate, 0.15 M NaCl, 0.05% Tween-20) for imaging mice, or 50 µL of the reaction was diluted with 100 µL of PBS Tween-20 for BioD mice. The tracers were prepared immediately before injection to avoid radiolysis and minimize the tracer loss to any surfaces due to its lipophilicity. The injected doses of each isomer, ^197mHg and ^197gHg, were quantified by measuring an aliquot of known volume of each tracer preparation via HPGe gamma spectroscopy and decay corrected for time of injection using the Eqs. (1) and (2).
The study was conducted in compliance with the guidelines set by the Canadian Council on Animal Care (CCAC) and approved by the Animal Care Committee (ACC) at the University of British Columbia (A20-0132). A total of eight healthy male C57BL/6 mice weighing approximately 30 g for group 1 and 25 g for group 2 were used in the study. The mice were divided into two experimental groups: group 1 (n = 4) received free [^197m/gHg]HgCl2, while group 2 (n = 4) received [^197m/gHg]Hg-Tetrathiol. Within each group, one mouse was allocated for imaging, while the rest were designated for ex vivo biodistribution analysis. For SPECT imaging, the designated mice were anesthetized using isoflurane via a precision vaporizer. […] Once anesthetized, each imaging mouse received an intravenous (IV) injection via the lateral tail vein of 150 μL of [^197m/gHg]HgCl2 (0.492 MBq ^197mHg + 3.171 MBq ^197gHg) or [^197m/gHg]Hg-Tetrathiol (0.899 MBq ^197mHg + 4.230 MBq ^197gHg) in PBS Tween-20 (0.01 M Na Phosphate, 0.15 M NaCl, 0.05% Tween-20).
Mice received an IV injection of [^197m/gHg]HgCl2 (0.275 MBq ^197mHg + 1.758 MBq ^197gHg, 150 μL) or [^197m/gHg]Hg-Tetrathiol (0.384 MBq ^197mHg + 1.733 MBq ^197gHg, 150 μL) (n = 3 per group) via the lateral tail vein using a Tailveiner restrainer. After the injection, the mice were returned to their experimental cages and allowed unrestricted movement. Biodistribution studies were conducted 2 h after administration. Mice were humanely euthanized with an overdose of isoflurane followed by cardiac puncture to collect blood pool activity. The organs of interest were fully extracted, cleaned of blood without rinsing, weighed, and analysed for radioactivity using a calibrated gamma counter with the 55–93 keV energy window for ^197gHg and the 110–160 keV energy window for ^197mHg (Packard Cobra II, Perkin Elmer, Waltham, MA, USA). The stomach and intestines were carefully cleaned prior to analysis to remove residual contents. For tissues and fluids that could not be fully removed (muscle, blood and bone) activity values were extrapolated based on standardised organ weights for age- and sex-matched mice tables to ensure accurate normalization (Davies and Morris [1993]; Foster et al. [2014]). The stomach and whole intestines were cleaned before analysis. The radioactivity measurements were decay corrected for time of injection using the Eqs. (1) and (2). The results are reported as the percentage of the injected activity per gram of tissue (%IA/g) and percentage of the injected activity per tissue (%IA/organ).

## O=C(CC[S-])OCC(COC(=O)CC[S-])(COC(=O)CC[S-])COC(=O)CC[S-].[Hg+2] [[^197m/gHg]Hg-Tetrathiol]
  Animal 1 (%IA/Organ): bladder: 0.00 %IA/Organ
  Animal 1 (%IA/Organ): blood: 0.13 %IA/Organ
  Animal 1 (%IA/Organ): bone: 3.25 %IA/Organ
  Animal 1 (%IA/Organ): brain: 0.01 %IA/Organ
  Animal 1 (%IA/Organ): feces: 0.00 %IA/Organ
  Animal 1 (%IA/Organ): heart: 0.07 %IA/Organ
  Animal 1 (%IA/Organ): kidneys: 1.54 %IA/Organ
  Animal 1 (%IA/Organ): large intestine: 0.02 %IA/Organ
  Animal 1 (%IA/Organ): liver: 110.52 %IA/Organ
  Animal 1 (%IA/Organ): lungs: 0.95 %IA/Organ
  Animal 1 (%IA/Organ): muscle: 0.14 %IA/Organ
  Animal 1 (%IA/Organ): pancreas: 0.01 %IA/Organ
  Animal 1 (%IA/Organ): small intestine: 0.03 %IA/Organ
  Animal 1 (%IA/Organ): spleen: 3.22 %IA/Organ
  Animal 1 (%IA/Organ): stomach: 0.02 %IA/Organ
  Animal 1 (%IA/Organ): tail: 0.69 %IA/Organ
  Animal 1 (%IA/Organ): urine: 0.00 %IA/Organ
  Animal 1 (%IA/g) g: bladder: 0.05 %IA/g
  Animal 1 (%IA/g) g: blood: 0.09 %IA/g
  Animal 1 (%IA/g) g: bone: 1.72 %IA/g
  Animal 1 (%IA/g) g: brain: 0.03 %IA/g
  Animal 1 (%IA/g) g: feces: 0.04 %IA/g
  Animal 1 (%IA/g) g: heart: 0.55 %IA/g
  Animal 1 (%IA/g) g: kidneys: 4.07 %IA/g
  Animal 1 (%IA/g) g: large intestine: 0.12 %IA/g
  Animal 1 (%IA/g) g: liver: 85.85 %IA/g
  Animal 1 (%IA/g) g: lungs: 7.12 %IA/g
  Animal 1 (%IA/g) g: muscle: 0.01 %IA/g
  Animal 1 (%IA/g) g: pancreas: 0.06 %IA/g
  Animal 1 (%IA/g) g: small intestine: 0.14 %IA/g
  Animal 1 (%IA/g) g: spleen: 44.55 %IA/g
  Animal 1 (%IA/g) g: stomach: 0.16 %IA/g
  Animal 1 (%IA/g) g: tail: 1.37 %IA/g
  Animal 1 (%IA/g) g: urine: 0.03 %IA/g
  Animal 2 (%IA/Organ): bladder: 0.00 %IA/Organ
  Animal 2 (%IA/Organ): blood: 0.17 %IA/Organ
  Animal 2 (%IA/Organ): bone: 2.68 %IA/Organ
  Animal 2 (%IA/Organ): brain: 0.01 %IA/Organ
  Animal 2 (%IA/Organ): feces: 0.00 %IA/Organ
  Animal 2 (%IA/Organ): heart: 0.09 %IA/Organ
  Animal 2 (%IA/Organ): kidneys: 0.82 %IA/Organ
  Animal 2 (%IA/Organ): large intestine: 0.01 %IA/Organ
  Animal 2 (%IA/Organ): liver: 133.87 %IA/Organ
  Animal 2 (%IA/Organ): lungs: 0.87 %IA/Organ
  Animal 2 (%IA/Organ): muscle: 0.22 %IA/Organ
  Animal 2 (%IA/Organ): pancreas: 0.01 %IA/Organ
  Animal 2 (%IA/Organ): small intestine: 0.02 %IA/Organ
  Animal 2 (%IA/Organ): spleen: 4.01 %IA/Organ
  Animal 2 (%IA/Organ): stomach: 0.04 %IA/Organ
  Animal 2 (%IA/Organ): tail: 0.56 %IA/Organ
  Animal 2 (%IA/Organ): urine: 0.00 %IA/Organ
  Animal 2 (%IA/g) g: bladder: 0.04 %IA/g
  Animal 2 (%IA/g) g: blood: 0.11 %IA/g
  Animal 2 (%IA/g) g: bone: 1.37 %IA/g
  Animal 2 (%IA/g) g: brain: 0.02 %IA/g
  Animal 2 (%IA/g) g: feces: 0.05 %IA/g
  Animal 2 (%IA/g) g: heart: 0.74 %IA/g
  Animal 2 (%IA/g) g: kidneys: 2.02 %IA/g
  Animal 2 (%IA/g) g: large intestine: 0.05 %IA/g
  Animal 2 (%IA/g) g: liver: 103.98 %IA/g
  Animal 2 (%IA/g) g: lungs: 6.17 %IA/g
  Animal 2 (%IA/g) g: muscle: 0.02 %IA/g
  Animal 2 (%IA/g) g: pancreas: 0.04 %IA/g
  Animal 2 (%IA/g) g: small intestine: 0.07 %IA/g
  Animal 2 (%IA/g) g: spleen: 61.57 %IA/g
  Animal 2 (%IA/g) g: stomach: 0.32 %IA/g
  Animal 2 (%IA/g) g: tail: 1.15 %IA/g
  Animal 2 (%IA/g) g: urine: 0.03 %IA/g
  Animal 3 (%IA/Organ): bladder: 0.00 %IA/Organ
  Animal 3 (%IA/Organ): blood: 0.18 %IA/Organ
  Animal 3 (%IA/Organ): bone: 2.26 %IA/Organ
  Animal 3 (%IA/Organ): brain: 0.01 %IA/Organ
  Animal 3 (%IA/Organ): feces: 0.00 %IA/Organ
  Animal 3 (%IA/Organ): heart: 0.09 %IA/Organ
  Animal 3 (%IA/Organ): kidneys: 1.16 %IA/Organ
  Animal 3 (%IA/Organ): large intestine: 0.02 %IA/Organ
  Animal 3 (%IA/Organ): liver: 131.25 %IA/Organ
  Animal 3 (%IA/Organ): lungs: 1.12 %IA/Organ
  Animal 3 (%IA/Organ): muscle: 0.21 %IA/Organ
  Animal 3 (%IA/Organ): pancreas: 0.01 %IA/Organ
  Animal 3 (%IA/Organ): small intestine: 0.02 %IA/Organ
  Animal 3 (%IA/Organ): spleen: 4.84 %IA/Organ
  Animal 3 (%IA/Organ): stomach: 0.09 %IA/Organ
  Animal 3 (%IA/Organ): tail: 0.27 %IA/Organ
  Animal 3 (%IA/Organ): urine: 0.00 %IA/Organ
  Animal 3 (%IA/g) g: bladder: 0.03 %IA/g
  Animal 3 (%IA/g) g: blood: 0.13 %IA/g
  Animal 3 (%IA/g) g: bone: 1.20 %IA/g
  Animal 3 (%IA/g) g: brain: 0.03 %IA/g
  Animal 3 (%IA/g) g: feces: 0.00 %IA/g
  Animal 3 (%IA/g) g: heart: 0.82 %IA/g
  Animal 3 (%IA/g) g: kidneys: 3.17 %IA/g
  Animal 3 (%IA/g) g: large intestine: 0.10 %IA/g
  Animal 3 (%IA/g) g: liver: 159.50 %IA/g
  Animal 3 (%IA/g) g: lungs: 8.45 %IA/g
  Animal 3 (%IA/g) g: muscle: 0.02 %IA/g
  Animal 3 (%IA/g) g: pancreas: 0.08 %IA/g
  Animal 3 (%IA/g) g: small intestine: 0.09 %IA/g
  Animal 3 (%IA/g) g: spleen: 77.82 %IA/g
  Animal 3 (%IA/g) g: stomach: 0.89 %IA/g
  Animal 3 (%IA/g) g: tail: 0.56 %IA/g
  Animal 3 (%IA/g) g: urine: 0.03 %IA/g
  Animal 4 (%IA/Organ): bladder: 0.00 %IA/Organ
  Animal 4 (%IA/Organ): blood: 0.15 %IA/Organ
  Animal 4 (%IA/Organ): bone: 2.62 %IA/Organ
  Animal 4 (%IA/Organ): brain: 0.01 %IA/Organ
  Animal 4 (%IA/Organ): feces: 0.00 %IA/Organ
  Animal 4 (%IA/Organ): heart: 0.09 %IA/Organ
  Animal 4 (%IA/Organ): kidneys: 1.00 %IA/Organ
  Animal 4 (%IA/Organ): large intestine: 0.01 %IA/Organ
  Animal 4 (%IA/Organ): liver: 107.31 %IA/Organ
  Animal 4 (%IA/Organ): lungs: 0.93 %IA/Organ
  Animal 4 (%IA/Organ): muscle: 0.20 %IA/Organ
  Animal 4 (%IA/Organ): pancreas: 0.01 %IA/Organ
  Animal 4 (%IA/Organ): small intestine: 0.02 %IA/Organ
  Animal 4 (%IA/Organ): spleen: 4.62 %IA/Organ
  Animal 4 (%IA/Organ): stomach: 0.01 %IA/Organ
  Animal 4 (%IA/Organ): tail: 2.67 %IA/Organ
  Animal 4 (%IA/Organ): urine: 0.00 %IA/Organ
  Animal 4 (%IA/g) g: bladder: 0.07 %IA/g
  Animal 4 (%IA/g) g: blood: 0.10 %IA/g
  Animal 4 (%IA/g) g: bone: 1.40 %IA/g
  Animal 4 (%IA/g) g: brain: 0.02 %IA/g
  Animal 4 (%IA/g) g: feces: 0.01 %IA/g
